{"source": "patent US11389415B2", "about": "“Methods of regulating cannabinoid receptor activity-related disorders and diseases” (The United States of America as represented by the …, priority 2012, dated 2022)", "key": {"HepG2 cells": {"system": "HepG2 cells", "test": "[3H]-Thymidine incorporation assay in HepG2 cells", "format": "cell-based, human", "protocol": "Maintenance and Treatment of Cell Lines. Human HepG2 hepatocarcinoma cells and human U87MG glioma cells (ATCC, Manassas, Va.) were maintained in EMEM medium supplemented with 1% L-glutamine, 1% sodium pyruvate, 1% penicillin/streptomycin, and 10% FBS (Hyclone, Logan, Utah). The human 1321N1 astrocytoma cells (European Collection of Cell Cultures, Sigma-Aldrich) were cultured in Dulbecco's modified Eagle's medium supplemented with 10% FBS and penicillin/streptomycin. All cell lines were cultured at 37° C. in 5% CO2, and the medium was replaced every 2-3 days.\nCells were seeded in 12-well plates at approximately 50,000 cells/well and incubated at 37° C. After 24 hours, the wells were rinsed with PBS and replaced with serum-free medium containing the appropriate concentration of the test compounds. After another 24-hour incubation at 37° C., 1 μCi of [^3H]-thymidine was added to each well and incubated at 37° C. for 16 hours. [^3H]-Thymidine incorporation into DNA was monitored after the cells were washed twice with PBS and then lysed in 600 μL of 0.1N NaOH for 30 minutes with shaking. The lysate was then mixed with 3 mL of liquid scintillation cocktail (Beckman Coulter, Inc., Brea, Calif.), and radioactivity was measured by liquid scintillation counting using Beckman Coulter LS6000IC Scintillation Counter. Data are shown as CPM incorporated compared to the control cells."}, "1321N1 cells": {"system": "1321N1 cells", "details": "previously reported; read-out: Mitogenesis Inhibition in 1321N1 cells (IC50 nM)* (converted); cited from earlier work"}, "GPR55 [1]": {"target": "T1, GPR55 (Homo sapiens, UniProt Q9Y2T6)", "T1 sequence (Q9Y2T6 whole entry)": "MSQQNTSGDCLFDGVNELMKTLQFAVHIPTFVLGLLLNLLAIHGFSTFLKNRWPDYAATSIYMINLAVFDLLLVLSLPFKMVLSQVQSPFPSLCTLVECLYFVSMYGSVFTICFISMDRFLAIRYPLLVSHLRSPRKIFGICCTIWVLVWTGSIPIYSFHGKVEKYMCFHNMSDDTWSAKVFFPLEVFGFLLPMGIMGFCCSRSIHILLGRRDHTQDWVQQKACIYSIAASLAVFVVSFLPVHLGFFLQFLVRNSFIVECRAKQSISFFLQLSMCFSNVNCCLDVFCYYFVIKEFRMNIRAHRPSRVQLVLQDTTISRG", "test": "GPR55 internalization assay in hGPR55-HEK293 cells", "format": "cell-based", "details": "HEK293 stably expressing HA-tagged GPR55, 5 μM, 20 minutes", "protocol": "GPR55 internalization assay. Endocytosis of GPR55 was observed following a previously described protocol with minor modifications (Henstridge et al., Br. J. Pharmacol. 160: 604-614, 2010). Briefly, hGPR55-HEK293 cells were grown on Lab-Tek II CC2 chamber slides (Thermo Scientific Nunc, Rochester, N.Y.) for 48 hours in regular media and then were serum starved for 1 hour. A preincubation with 1:1000 rabbit HA antibody (Covance, Md.) was performed in the presence of vehicle (0.1% DMSO) or 1 μM MNF in serum-free media for 45 minutes at 37° C. in the CO2 incubator. Cells were then washed extensively with PBS and treated with 5 μM 01602 in serum-free media for 20 minutes at 37° C. in the CO2 incubator. Subsequently, cells were washed three times, fixed in fresh 3.7% paraformaldehyde in PBS (10 min), and incubated with anti-rabbit Alexa Fluor 488 antibody (Molecular Probes, Eugene, Oreg.; 1:1000, 30 minutes). Cells were washed and fixed for a second time prior to permeabilization with 0.2% Triton X-100 (5 minutes). Incubation with anti-rabbit Alexa Fluor 568 antibody (Molecular Probes; 1:1000, 30 minutes) was carried out to determine the extent of internalized GPR55-HA antibody complex. […]"}, "ERK1/2": {"system": "ERK1/2", "test": "ERK1/2 phosphorylation (GPR55 downstream signaling) in HepG2 cells", "format": "cell-based, human", "details": "HepG2, 2.5 and 10 μM, 10 minutes", "protocol": "(§1) Western blot analysis. For detection of intracellular signaling proteins, cells were lysed in radioimmunoprecipitation buffer containing EGTA and EDTA (Boston BioProducts, Ashland, Mass.). The lysis buffer contained a protease inhibitor cocktail (Sigma-Aldrich) and phosphatase inhibitor cocktail (Calbiochem, San Diego, Calif.). Equivalent amount of proteins (14 and 54 μg/well for PANC-1 and HepG2 cells, respectively) were separated on 4 to 12% precast gels (Invitrogen, Carlsbad, Calif.) using SDS-polyacrylamide gel electrophoresis under reducing conditions and then electrophoretically transferred onto polyvinylidene fluoride membrane (Invitrogen). Western blots were performed according to standard methods, which involved blocking in 5% non-fat milk and incubated with the antibody of interest, followed by incubation with a secondary antibody conjugated with the enzyme horseradish perodixase. The detection of immunoreactive bands was performed by chemiluminescence using the ECL Plus Western Blotting Detection System (GE Healthcare, Piscataway, N.J.). The quantification of bands was done by volume densitometry by using ImageJ software. The rabbit polyclonal antibodies against EGFR were obtained from Cell Signaling Technology, Inc. (Beverly, Mass.) and the monoclonal anti-Hsp90 was purchased from Santa Cruz Biotechnology, Inc. (Santa Cruz, Calif.).\nEffect of MNF on O-1602-mediated increase in cell signaling. Serum-starved cells were pretreated in the absence or presence of 1 μM MNF for 10 minutes followed by a 10 minute incubation with 0, 2.5 and 10 μM O-1602 or 10% FBS, after which the levels of total ERK2 and phosphorylated forms of ERK1/2 (pErk1/2, Thr202/Tyr204), were determined by Western blotting technique. All primary antibodies were purchased from Cell Signaling Technology and used at a dilution recommended by the manufacturer."}, "GPR55 [2]": {"target": "T1, GPR55", "test": "Cellular uptake of TocriFluor T1117 in HepG2 cells", "format": "cell-based", "design": "host or cells: HepG2 hepatocarcinoma cells", "details": "HepG2, 0.25 μM, 30 minutes pretreatment"}, "HepG2 and PANC-1 cells": {"system": "HepG2 and PANC-1 cells", "test": "Cell morphology and EGFR expression in HepG2 and PANC-1 cells", "format": "cell-based, human", "details": "5 μM, 16 hours", "protocol": "FIGS. 26A-26C show MNF interferes with inducible changes in cell morphology and expression of EGFR. […] White arrows show individual cells with filopodia. FIG. 26C, Cell lysates were prepared from similar studies and immunoblotted for EGFR. The membranes were reprobed for Hsp90, which served as a loading control.\nas §1"}}, "data": [{"smiles": "C[C@@H](Cc1ccc(O)cc1)NC[C@@H](O)c1cc(O)cc(O)c1", "note": "[(S,S′)-Fen, fenoterol]", "values": [{"measurement": "% Change in HepG2 cells ([3H]-thymidine incorporation)", "setting": "HepG2 cells; 1 μM, 24 h", "result": 9.7, "unit": "%"}, {"measurement": "IC50", "setting": "1321N1 cells", "result": 184, "unit": "nM"}]}, {"smiles": "C=C(C)[C@@H]1CCC(C)=C[C@H]1c1c(C)cc(O)cc1O", "note": "[O-1602, reference compound]", "values": [{"measurement": "GPR55 internalization", "setting": "GPR55 [1]", "result": "led to marked endocytosis of HA-tagged GPR55"}, {"measurement": "ERK phosphorylation", "setting": "ERK1/2", "result": "dose-dependently increased ERK phosphorylation"}, {"measurement": "reduction in the amount of T1117 incorporated", "setting": "GPR55 [2]", "result": 47, "unit": "%"}, {"measurement": "delay in cellular accumulation of T1117", "setting": "GPR55 [2]; 10 nM T1117", "result": 12.5, "unit": "min"}, {"measurement": "EGFR levels", "setting": "HepG2 and PANC-1 cells", "result": "led to higher EGFR levels when compared to vehicle-treated cells"}]}, {"smiles": "CCC(Cc1ccc(O)cc1)NCC(O)c1cc(O)cc(O)c1", "note": "[(R,R′)-ethylFen, (R,R′)-ethylfenoterol]", "values": [{"measurement": "% Change in HepG2 cells ([3H]-thymidine incorporation)", "setting": "HepG2 cells; at 10 μM", "result": "(R,R′): 50.90 at 10 μM %"}, {"measurement": "IC50", "setting": "1321N1 cells", "result": "1.44 ± 0.27", "unit": "nM"}]}]}
